Measurements published in paper PMC8840664, “Design, Synthesis, Spectroscopic Characterisation and In Vitro Cytostatic Evaluation of Novel Bis(coumarin-1,2,3-triazolyl)benzenes and Hybrid Coumarin-1,2,3-triazolyl-aryl Derivatives” (Molecules, 2022).

Legend:
[1] = system: MCF-7 (breast carcinoma); assay: in vitro antiproliferative activity, MTT assay, MCF-7; assay type: cell-based, human; conditions: for IC50: Homo sapiens, MCF7, concentration that causes 50% growth inhibition, 72 h, MTT assay
Experimental: (§1) The experiments were carried out on several human cell lines, as follows: HCT116 (colon carcinoma), H 460 (lung carcinoma) and MCF-7 (breast carcinoma), HeLa (cervical carcinoma), human T-lymphocyte cells (CEM) and HMEC-1 (dermal microvascular endothelial cell) according to the previously published experimental procedure. Briefly, the cells were grown in DMEM medium with the addition of 10% foetal bovine serum (FBS), 2 mM L-glutamine, 100 U/mL penicillin and 100 µg/mL streptomycin, and cultured as monolayers at 37 °C in a humidified atmosphere with 5% CO2. HCT116, H 460 and MCF-7 cells were seeded at 2 × 10^3 cells/well in a standard 96-well microtiter plates and left to attach for 24 h. Next day, test compound was added in five serial 10-fold dilutions. The cell growth rate was evaluated after 72 h of incubation, using MTT assay. Obtained results were expressed as IC50 value which stands for the concentration of the compound necessary for 50% of growth inhibition. The IC50 values were calculated from concentration-response curve using linear regression analysis by fitting the test concentrations that give percentage of growth (PG) values above and below the reference value (i.e., 50%). However, if for a given cell line all of the tested concentrations produce PGs exceeding the respective reference level of effect (e.g., PG value of 50), then the highest tested concentration is assigned as the default value, which is preceded by a “>” sign. Each test was performed in quadruplicate in at least two individual experiments.

[2] = system: HCT116 (colon carcinoma); assay: in vitro antiproliferative activity, MTT assay, HCT116; assay type: cell-based; conditions: Homo sapiens, HCT-116, concentration that causes 50% growth inhibition, 72 h
Experimental: as §1

[3] = system: H 460 (lung carcinoma); assay: in vitro antiproliferative activity, MTT assay, H 460; assay type: cell-based; conditions: Homo sapiens, NCI-H460, concentration that causes 50% growth inhibition, 72 h
Experimental: as §1

[4] = system: human T-lymphocyte cells (CEM); assay: cell proliferation, Coulter counter, CEM; assay type: cell-based; conditions: 96 h, cells counted in a Coulter counter
Experimental: as §1
(§2) HeLa and HMEC-1 cells were seeded in 48-well plates at 10,000 cells/well. After 24 h, different concentrations of the compounds were added. After 3 days of incubation, the cells were trypsinized and counted in a Coulter counter. Suspension cells (human T-cell leukaemia Cem cells) were seeded in 96-well plates at 60,000 cells/well in the presence of different concentrations of compounds, allowed to proliferate for 96 h, and counted in a Coulter counter. The 50% inhibitory concentration (IC50) was defined as the compound concentration required reducing cell proliferation by 50%.

[5] = system: HeLa (cervical carcinoma); assay: cell proliferation, Coulter counter, HeLa; assay type: cell-based; conditions: Homo sapiens, 72 h, 3 days, cells counted in a Coulter counter
Experimental: as §1, §2

[6] = system: HMEC-1 (dermal microvascular endothelial cell); assay: cell proliferation, Coulter counter, HMEC-1 (non-tumour); assay type: cell-based; conditions: Homo sapiens, HMEC-1, 72 h; non-tumour cell line; 3 days, cells counted in a Coulter counter
Experimental: as §1, §2

| IC50 [1] [µM] | IC50 [2] [µM] | IC50 [3] [µM] | melting point [°C] | Compound | IC50 [4] [µM] | IC50 [5] [µM] | IC50 [6] [µM] | activity against MCF-7 cell line (in words) [1] |
| --- | --- | --- | --- | --- | --- | --- | --- | --- |
| ≥ 100 | 77 ± 7 | ≥ 100 | 282 to 287 | Cc1cc(=O)oc2cc(-n3cc(-c4ccc(C=O)cc4)nn3)ccc12 [Compound 2g, 4-[1-(4-Methyl-2-oxo-2H-chromen-7-yl]-1H-1,2,3-triazol-4-yl)benzaldehyde] |  |  |  | devoid of activity |
| 14 ± 0.3 | 4 ± 1 | 3 ± 0.3 |  | O=c1[nH]cc(F)c(=O)[nH]1 [Compound 5-FU, 5-fluorouracil, reference compound] |  |  |  |  |
| 19 ± 3 | 31 ± 5 | 23 ± 10 | 237 to 244 | Cc1cc(=O)oc2cc(-n3cc(CSc4nc5ccccc5[nH]4)nn3)ccc12 [Compound 4b, 7-{4-{[(1H-Benzo[d]imidazol-2-yl)thio]methyl}-1H-1,2,3-triazol-1-yl}-4-methyl-2H-chromen-2-one] | 74 ± 37 | 25 | 69 ± 8 |  |
| 3 ± 2 | 31 ± 6 | 21 ± 7 | 186 to 192 | Cc1cc(=O)oc2cc(-n3cc(CSc4nc5ccccc5s4)nn3)ccc12 [Compound 4a, 7-{{4-[(Benzo[d]thiazol-2-yl)thio]methyl}-1H-1,2,3-triazol-1-yl}-4-methyl-2H-chromen-2-one] | ≥ 100 | 79 ± 36 | 66 ± 4 |  |
| 1 ± 0.1 | 7 ± 3 | ≥ 100 | 255 to 261 | Cc1cc(=O)oc2cc(-n3cc(-c4ccc(-c5cn(-c6ccc7c(C)cc(=O)oc7c6)nn5)cc4)nn3)ccc12 [Compound 2i, 7,7′-(4,4′-(1,4-Phenylene)bis(1H-1,2,3-triazole-4,1-diyl))bis(4-methyl-2H-chromen-2-one)] | > 100 | ≥ 100 | > 100 |  |
| 1 ± 0.7 | 5 ± 2 | 0.1 ± 0.04 |  | COc1cc([C@@H]2c3cc4c(cc3[C@@H](O[C@@H]3O[C@@H]5CO[C@@H](C)O[C@H]5[C@H](O)[C@H]3O)[C@H]3COC(=O)[C@H]23)OCO4)cc(OC)c1O [etoposide, reference compound] |  |  |  |  |
| 0.3 ± 0.2 | 9 ± 3 | 29 ± 3 |  | Cc1cc(=O)oc2cc(-n3cc(-c4cccc(-c5cn(-c6ccc7c(C)cc(=O)oc7c6)nn5)c4)nn3)ccc12 [Compound 2h, 7,7′-(4,4′-(1,3-Phenylene)bis(1H-1,2,3-triazole-4,1-diyl))bis(4-methyl-2H-chromen-2-one)] | > 100 | > 100 | > 100 |  |

Second part, the compound before the results:

| Compound | IC50 [1] [µM] | IC50 [2] [µM] | IC50 [3] [µM] | melting point [°C] | IC50 [4] [µM] | IC50 [5] [µM] | IC50 [6] [µM] | activity against MCF-7 cell line (in words) [1] |
| --- | --- | --- | --- | --- | --- | --- | --- | --- |
| Cc1cc(=O)oc2cc(-n3cc(-c4ccccc4)nn3)ccc12 [Compound 2a, 4-Methyl-7-(4-phenyl-1H-1,2,3-triazol-1-yl)-2H-chromen-2-one] | 23 ± 9 | ≥ 100 | ≥ 100 | 267 to 270 | > 100 | > 100 | > 100 |  |
| COc1ccc(-c2cn(-c3ccc4c(C)cc(=O)oc4c3)nn2)cc1 [Compound 2f, 7-[4-(4-Methoxyphenyl)-1H-1,2,3-triazol-1-yl]-4-methyl-2H-chromen-2-one] | ≥ 100 | 22 ± 21 | ≥ 100 | 266 to 270 |  |  |  | devoid of activity |
| Cc1ccc(-c2cn(-c3ccc4c(C)cc(=O)oc4c3)nn2)cc1 [Compound 2d, 4-Methyl-7-[4-(p-tolyl)-1H-1,2,3-triazol-1-yl]-2H-chromen-2-one] | ≥ 100 | 36 ± 3 | ≥ 100 | 269 to 272 |  |  |  | devoid of activity |
| Cc1cc(=O)oc2cc(-n3cc(-c4ccc(N(C)C)cc4)nn3)ccc12 [Compound 2c, 7-[4-(4-(Dimethylamino)phenyl]-1H-1,2,3-triazol-1-yl)-4-methyl-2H-chromen-2-one] | 21 ± 0.03 | ≥ 100 | ≥ 100 | 275 to 279 | 58 ± 7 | 88 ± 8 | > 100 |  |
| Cc1cc(=O)oc2cc(-n3cc(-c4ccc(Br)cc4)nn3)ccc12 [Compound 2e, 7-[4-(4-Bromophenyl)-1H-1,2,3-triazol-1-yl]-4-methyl-2H-chromen-2-one] | 32 ± 4 | 27 ± 0.06 | 85 ± 13.5 | 280 to 285 |  |  |  |  |
| Cc1cc(=O)oc2cc(-n3cc(-c4ccc(N)cc4)nn3)ccc12 [Compound 2b, 7-[4-(4-Aminophenyl)-1H-1,2,3-triazol-1-yl]-4-methyl-2H-chromene-2-one] | 0.6 ± 0.1 | 3 ± 2 | ≥ 100 | 269 to 273 | > 100 | > 100 | > 100 |  |
